Several values for one entry are separate records, joined by “and”; a condition that tells them apart may be missing. Equal entries are not always repeated.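 How tested: cells in 96-well plates exposed to compound for 48 hours at five concentrations. GI50 marks 50% less growth. The concentration for full growth arrest is given as TGI.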
Test system: MDA-MB-468 breast
Assay: NCI anticancer screen, dose series, 48 h

SMILES: NC(=O)c1cccc(-c2cc(C(N)=O)ccc2Cl)c1
- GI50: 4610 nM
- TGI: > 100000 nM

SMILES: O=[N+]([O-])c1ccc2c(Nc3ccccc3-c3ccccc3Nc3c4ccccc4nc4cc([N+](=O)[O-])ccc34)c3ccccc3nc2c1
- GI50: 2250 nM
- TGI: 8600 nM

SMILES: COc1cccc(CC(C)=C(c2ccc(OCCCN(C)C)cc2)c2ccc(OCCCN(C)C)cc2)c1
- GI50: 518 nM
- TGI: 1180 nM

SMILES: C=CCn1c(=O)c2cnc(Nc3ccc(N4CCN(C)CC4)cc3)nc2n1-c1cccc(C(C)(C)O)n1
- GI50: 144 nM and 317 nM
- TGI: 801 nM and 2080 nM

SMILES: C=C1C(=O)O[C@H]2[C@H]1CC/C(CNC(=O)/C=C/c1ccccc1)=C\CC[C@@]1(C)O[C@@H]21
- GI50: 480 nM
- TGI: 1690 nM

SMILES: CCN1C(=O)N(CC)C2C1NN=c1s/c(=C\c3ccc[nH]3)c(=O)n12 (stereo not given)
- GI50: 265 nM
- TGI: > 100000 nM

SMILES: O=C1/C(=C/c2cccc(Br)c2)COc2ccc(O)c(O)c21
- GI50: 1600 nM
- TGI: 3800 nM

SMILES: COc1cc(/C=C/[N+](=O)[O-])cc(OC)c1OC
- GI50: 1320 nM
- TGI: 2870 nM

SMILES: Oc1c(Cl)cc(Cl)c2cccnc12
- GI50: 2100 nM
- TGI: 5530 nM

SMILES: CCOC(=O)C1=C(C)N2C(=NC3=C(CCC/C3=C\c3ccc(Cl)cc3)C2c2ccc(Cl)cc2)S1 (stereo not given)
- GI50: 2360 nM
- TGI: 6190 nM

SMILES: C[C@H]1c2ccccc2CN1CCCOc1cc2c(cc1OCC1CC1)C1(CCCC1)C(N)=N2
- GI50: 813 nM
- TGI: 1830 nM

SMILES: O=c1c(O)cccn1CCCN(CCCn1cccc(O)c1=O)CCn1cccc(O)c1=O
- GI50: 8330 nM
- TGI: 45600 nM

SMILES: C[C@@H]1COCCN1c1cc(-c2ccnn2C)c2ccnc(-c3ccn[nH]3)c2n1
- GI50: 164 nM and 324 nM
- TGI: 854 nM and 3080 nM

SMILES: Cn1nnc2c(C(N)=O)ncn2c1=O
- GI50: > 100000 nM
- TGI: > 100000 nM

SMILES: Cc1ccc(NC(=O)Nc2nc3ccc([N+](=O)[O-])cc3s2)cc1
- GI50: 1710 nM
- TGI: 5800 nM

From PubChem BioAssay (NCI)
